In ChEMBL document CHEMBL6103622 (J Med Chem, 2025):
Activity calls are given as the source filed them. The rule behind the calls is not given here.

How the values were obtained:
MC-38 [1] = assay: Antitumor activity against mouse MC38 cells allografted in C57BL/6 mouse model assessed as reduction in tumor weight at 10 mg/kg, ip administered once daily for 14 days relative to control; type: functional; design: scale not given: the % may be the effect or the level left; settings: time 14 day
MC-38 [2] = assay: Induction of apoptosis in mouse MC38 cells cocultured with condition medium of M2 macrophages assessed as late apoptotic cells at 10 nM by Annexin V/PI staining based flow cytometric analysis (reference value: 1.66 %); type: functional
MC-38 [3] = assay: Antitumor activity against mouse MC38 cells allografted in C57BL/6 mouse model assessed as reduction in tumor volume at 20 mg/kg, ip administered once daily for 14 days relative to control; type: functional; design: scale not given: the % may be the effect or the level left; settings: time 14 day
[4] = target: T1, Macrophage colony-stimulating factor 1 receptor (Mus musculus) (UniProt P09581); assay: Inhibition of CSF-1R signaling pathway activation in female C57BL/6 mouse BMDM cells assessed as reduction in STAT3 phosphorylation preincubated with compounds for 4 hrs followed by M-CSF stimulation and measured after 30 mins by Western blot analysis; type: cell-based; settings: dose 10-100 nM, time 4.5 hrs
T1 sequence (whole entry): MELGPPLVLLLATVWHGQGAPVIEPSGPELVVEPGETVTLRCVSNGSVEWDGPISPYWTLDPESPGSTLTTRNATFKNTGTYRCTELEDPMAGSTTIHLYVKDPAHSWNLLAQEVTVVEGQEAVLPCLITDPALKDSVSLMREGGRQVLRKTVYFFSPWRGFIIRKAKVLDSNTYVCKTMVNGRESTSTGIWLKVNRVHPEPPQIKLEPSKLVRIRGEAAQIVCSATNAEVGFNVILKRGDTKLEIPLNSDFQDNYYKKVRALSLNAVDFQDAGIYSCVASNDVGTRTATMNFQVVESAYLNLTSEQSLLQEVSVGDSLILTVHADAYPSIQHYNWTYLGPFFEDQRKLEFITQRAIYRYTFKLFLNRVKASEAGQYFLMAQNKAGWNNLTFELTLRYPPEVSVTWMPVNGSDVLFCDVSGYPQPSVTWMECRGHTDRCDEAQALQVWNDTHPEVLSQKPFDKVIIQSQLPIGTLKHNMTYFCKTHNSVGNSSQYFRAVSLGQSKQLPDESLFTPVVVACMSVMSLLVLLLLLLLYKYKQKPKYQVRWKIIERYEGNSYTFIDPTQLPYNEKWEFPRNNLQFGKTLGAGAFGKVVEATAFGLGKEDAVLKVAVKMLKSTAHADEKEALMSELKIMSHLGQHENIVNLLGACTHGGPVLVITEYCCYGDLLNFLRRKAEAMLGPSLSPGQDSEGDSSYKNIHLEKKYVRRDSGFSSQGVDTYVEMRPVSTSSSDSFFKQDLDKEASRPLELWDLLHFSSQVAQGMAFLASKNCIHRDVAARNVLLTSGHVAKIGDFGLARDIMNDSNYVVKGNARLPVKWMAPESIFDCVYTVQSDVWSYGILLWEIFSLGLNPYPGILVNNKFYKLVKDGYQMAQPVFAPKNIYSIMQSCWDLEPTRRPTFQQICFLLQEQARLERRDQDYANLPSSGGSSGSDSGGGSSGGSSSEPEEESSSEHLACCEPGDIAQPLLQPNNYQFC

MC-38 [5] = assay: Antitumor activity against mouse MC38 cells allografted in C57BL/6 mouse model assessed as downregulation of Arg1 mRNA expression in tumor at 10 to 20 mg/kg, ip administered once daily for 14 days by qPCR analysis; type: functional, organism-based; settings: dose 10-20 mg/kg, time 14.0 day
[6] = Toxicity in C57BL/6 mouse model allografted with mouse MC38 cells assessed as body weight loss at 10 to 20 mg/kg, ip administered once daily for 14 days; type: organism-based; settings: in vivo, 336 h, dose 10-20 mg/kg, time 14 day
MC-38 [7] = assay: Inhibition of cell proliferation in mouse MC38 cells at 10 to 100 nM incubated for 20 hrs by CCK8 assay; type: functional, cell-based; settings: dose 10-100 nM
[8] = target: T1, Macrophage colony-stimulating factor 1 receptor (Mus musculus); assay: Binding affinity to CSF-1R in female C57BL/6 mouse BMDM cells assessed as decrease in protein solubility at 100 nM incubated for 1 hrs in presence of 7 to 15 % of acetone/ethanol/acetic acid mixture by SIP assay; type: cell-based
[9] = target: T1, Macrophage colony-stimulating factor 1 receptor (Mus musculus); assay: Inhibition of CSF-1R signaling pathway activation in female C57BL/6 mouse BMDM cells assessed as reduction in CSF-1R phosphorylation at Tyr723 residue at 100 nM preincubated with compounds for 4 hrs followed by M-CSF stimulation and measured after 30 mins by Western blot analysis; type: cell-based; settings: time 4.5 hrs
BMDM [10] = assay: Induction of repolarization of M2 like macrophage into M1 phenotype in female C57BL/6 mouse BMDM cells assessed as decrease in Rental mRNA expression at 10 to 100 nM stimulated with mouse IL4/IL-13 for 24 hrs followed by compound addition and measured after 24 hrs by qPCR analysis; type: functional, cell-based; settings: dose 10-100 nM
[11] = tested on: Colorectal cancer organoid; assay: Antitumor activity against patient derived CRC organoids cocultured with IL-4/13 stimulated M2 macrophages assessed as reduction in number of organoids at 10 to 100 nM incubated for 72 hrs; type: functional, tissue-based; settings: Homo sapiens, Colorectum, dose 10-100 nM
[12] = target: T1, Macrophage colony-stimulating factor 1 receptor (Mus musculus); assay: Inhibition of CSF-1R signaling pathway activation in female C57BL/6 mouse BMDM cells assessed as reduction in AKT phosphorylation at Ser473 residue at 100 nM preincubated with compounds for 4 hrs followed by M-CSF stimulation and measured after 30 mins by Western blot analysis; type: cell-based; settings: time 4.5 hrs
[13] = target: NT-3 growth factor receptor (Homo sapiens) (UniProt Q16288); assay: Inhibition of TRKC (unknown origin) at 1 uM
NT-3 growth factor receptor (Homo sapiens), sequence (Q16288 32-839 limits assumed): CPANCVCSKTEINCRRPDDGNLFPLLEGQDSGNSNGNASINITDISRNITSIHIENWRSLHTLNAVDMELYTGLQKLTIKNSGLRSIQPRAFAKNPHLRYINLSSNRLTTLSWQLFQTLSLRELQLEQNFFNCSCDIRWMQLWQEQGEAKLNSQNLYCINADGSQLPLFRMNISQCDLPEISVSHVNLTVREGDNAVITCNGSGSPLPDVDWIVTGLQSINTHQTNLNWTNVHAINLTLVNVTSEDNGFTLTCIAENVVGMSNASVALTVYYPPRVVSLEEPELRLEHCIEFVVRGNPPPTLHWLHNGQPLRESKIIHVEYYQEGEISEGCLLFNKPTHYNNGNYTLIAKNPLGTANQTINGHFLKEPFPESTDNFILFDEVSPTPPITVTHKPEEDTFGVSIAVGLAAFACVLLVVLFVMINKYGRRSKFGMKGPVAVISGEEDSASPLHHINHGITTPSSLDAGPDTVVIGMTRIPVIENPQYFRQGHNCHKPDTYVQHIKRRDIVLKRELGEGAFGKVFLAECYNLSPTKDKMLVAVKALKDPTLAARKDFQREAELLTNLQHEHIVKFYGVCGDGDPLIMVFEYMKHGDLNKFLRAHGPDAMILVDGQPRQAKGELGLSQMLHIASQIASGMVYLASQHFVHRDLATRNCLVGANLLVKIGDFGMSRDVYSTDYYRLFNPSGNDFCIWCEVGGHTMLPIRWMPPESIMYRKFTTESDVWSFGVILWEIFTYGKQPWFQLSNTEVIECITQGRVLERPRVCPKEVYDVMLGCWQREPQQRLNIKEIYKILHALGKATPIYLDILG

MC-38 [14] = assay: Antitumor activity against mouse MC38 cells allografted in C57BL/6 mouse model assessed as reduction in tumor weight at 20 mg/kg, ip administered once daily for 14 days relative to control; type: functional; design: scale not given: the % may be the effect or the level left; settings: time 14 day
MC-38 [15] = assay: Inhibition of cell viability in mouse MC38 cells at 10 to 100 nM by MTT assay; type: functional, cell-based; settings: dose 10-100 nM
MC-38 [16] = assay: Antitumor activity against mouse MC38 cells allografted in C57BL/6 mouse model assessed as upregulation of Il6 mRNA expression in tumor at 10 to 20 mg/kg, ip administered once daily for 14 days by qPCR analysis; type: functional, organism-based; settings: dose 10-20 mg/kg, time 14.0 day
BMDM [17] = assay: Induction of repolarization of M2 like macrophage into M1 phenotype in female C57BL/6 mouse BMDM cells assessed as increase in Nos2 mRNA expression at 10 to 100 nM stimulated with mouse IL4/IL-13 for 24 hrs followed by compound addition and measured after 24 hrs by qPCR analysis; type: functional, cell-based; settings: dose 10-100 nM
MC-38 [18] = assay: Antitumor activity against mouse MC38 cells allografted in C57BL/6 mouse model assessed as reduction in tumor weight at 10 to 20 mg/kg, ip administered once daily for 14 days; type: functional, organism-based; settings: dose 10-20 mg/kg, time 14.0 day
MC-38 [19] = assay: Antitumor activity against mouse MC38 cells allografted in C57BL/6 mouse model assessed as downregulation of Chil3l mRNA expression in tumor at 10 to 20 mg/kg, ip administered once daily for 14 days by qPCR analysis; type: functional, organism-based; settings: dose 10-20 mg/kg, time 14.0 day
[20] = Cmax in Sprague-Dawley rat at 10 mg/kg, po; type: ADME, organism-based; settings: in vivo

**Q.** Which Activity (MC-38 [1]) does the source give for `Cc1nc(NC(=O)N[C@@H]2CCCC[C@H]2O)ccc1Oc1c[nH]c2ncc(Cl)cc12` here?
**A.** Its Activity is 39%.

**Q.** What about the Activity (MC-38 [2]) of the same compound?
**A.** The Activity was 3.25%.

**Q.** What about the Activity (MC-38 [3]) of the same compound?
**A.** Its Activity is 54%.

**Q.** What about the inhibition [4] of the same compound?
**A.** Its inhibition is “Dose-dependent-effect”.

**Q.** What about the Activity (MC-38 [5]) of the same compound?
**A.** The Activity was “Active”.

**Q.** What about the Activity [6] of the same compound?
**A.** Its Activity is “Non-toxic”.

**Q.** And the inhibition (MC-38 [7])?
**A.** The inhibition was “Minimal_effect”.

**Q.** What about the Activity [8] of the same compound?
**A.** The Activity was “Active”.

**Q.** And the inhibition [9]?
**A.** Its inhibition is “Active”.

**Q.** What about the Activity (BMDM [10]) of the same compound?
**A.** The Activity was “Active”.

**Q.** And the Activity [11]?
**A.** The Activity was “Active”.

**Q.** And the inhibition [12]?
**A.** Its inhibition is “Active”.

**Q.** What about the inhibition [13] of the same compound?
**A.** Its inhibition is “Active”.

**Q.** What about the Activity (MC-38 [14]) of the same compound?
**A.** The Activity was 56%.

**Q.** And the inhibition (MC-38 [15])?
**A.** The inhibition was “Minimal_effect”.

**Q.** What about the Activity (MC-38 [16]) of the same compound?
**A.** Its Activity is “Active”.

**Q.** And the Activity (BMDM [17])?
**A.** The Activity was “Active”.

**Q.** What about the Activity (MC-38 [18]) of the same compound?
**A.** The Activity was “Active; Lower Tumor Weight Observed Than That Of Plx3397 Treated Group”.

**Q.** What about the Activity (MC-38 [19]) of the same compound?
**A.** Its Activity is “Active”.

**Q.** What about the Cmax [20] of the same compound?
**A.** The Cmax was 1580 ng/mL.
